The nature of data set [1]: Water uptake experiments (Dynamic Vapor Sorption). The note with it: equilibrated under 80% relative humidity (RH) air at 25° C. It counts as physicochemical. How it is done: A dry sample of the crystalline form having a melting point or a decomposition point of about 278° C. to about 285° C. (i.e., Form II) typically gains less than about 1% of its own weight when equilibrated under 80% relative humidity (RH) air at 25° C. […] For the present purposes, the term “essentially 0% RH” means less than about 1% RH. The term “equilibrated” means that the change in weight of a sample over time at a given relative humidity is less than 0.0003% ((dm/dt)/m0×100, where m is mass in mg, m0 is initial mass, and t is time in minutes).
Water sorption experiments are performed on a Dynamic Vapor Sorption (DVS) apparatus (DVS-1000 manufactured by Surface Measurements Systems, Inc.). Experiments are performed at 25° C. by initially drying the material of interest (about 10 mg sample) from 30% relative humidity (RH) (ambient room condition) to about 9% RH in a stepwise fashion (10% RH step) by purging with dry nitrogen until no further weight change was observed. The samples are then exposed to a stepwise (10% RH steps) increase in RH from about 0 to about 90% RH. Each successive step is initiated when the change in weight over time at the relative humidity was less than 0.0003% ((dm/dt)/m0×100, where m is mass in mg, m0 is initial mass, and t is time in minutes). […] The data are collected on a computer and analyzed using SMS' proprietary MS-Excel macro interface software.

Data set [2] relates to Male beagle dogs. In words: Serum triglyceride in beagle dogs. The format is in vivo, dog. The note with it: pravastatin 10 mg/kg/day dosed Weeks 1-11; Week 10; mean ± SEM, n=6. The procedure: Following this initial four week dose-ranging study, dogs from the two groups receiving 10 mg/kg/day pravastatin (a.m. and p.m. dosing groups) were randomized into two new treatment groups based on serum total cholesterol levels to initiate the combination treatment study. One group received an empty capsule (a.m. dosing) and 10 mg/kg/day pravastatin (p.m. dosing) and the other received 4.0 mg/kg/day compound A-5 (a.m. dosing) and 10 mg/kg/day pravastatin (p.m. dosing). A third group that had received empty capsules (vehicle) in the dose-ranging study was used for compound A-5 monotherapy and was administered 4.0 mg/kg/day compound A-5 (a.m. dosing) and an empty capsule (p.m. dosing). […]
Blood was collected from the cephalic vein of each dog into serum separator tubes. […] Commercial calibrator and quality control materials were analyzed with each run to verify assay accuracy and precision. […]
Serum lipid measurements were obtained as described in Example 3 above except that blood was collected from either the cephalic or jugular vein of each dog into serum separator tubes and the blood was centrifuged at 2000 rpm for 20 minutes. Table X-4A below reports the data measured on the effect of the compound A-5/pravastatin combination therapy on serum total cholesterol. […]

The values below come from US20030232834A1, “Combination therapy for the prophylaxis and treatment of hyperlipidemic conditions and disorders” (priority 2002, published 2003).

As to `CCCCC1(CCCC)CS(=O)(=O)c2ccc(N(C)C)cc2[C@@H](c2ccc(OCc3ccc(C[N+]45CCN(CC4)CC5)cc3)cc2)[C@H]1O.[Cl-]` [Form II, (4R,5R)-1-((4-(4-(3,3-dibutyl-7-(dimethylamino)-2,3,4,5-tetrahydro-4-hydroxy-1,1-dioxido-1-benzithiepin-5-yl)phenoxy)methyl)phenyl)methyl-4-aza-1-azoniabicyclo[2.2.2]octane chloride], the “weight gain of a dry sample (of its own weight)” value in data set [1] was “less than 1%”. For the compound `CC[C@H](C)C(=O)O[C@H]1C[C@H](O)C=C2C=C[C@H](C)[C@H](CC[C@@H](O)C[C@@H](O)CC(=O)O)[C@H]21` [pravastatin, Pravastatin], the “TOTAL SERUM TRIGLYCERIDE” value in data set [2] is 43 ± 5 mg/dL.
